# Measurements published in the supplement of paper PMC10307832.
# Experiments:
# Experiment in all cases: relative viability (nuclei count vs DMSO), 5 days (fraction); higher = more cells survive
# EKVX = test system: EKVX
# Procedure, shortened: (§1)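 After 5 days of treatment, lung cancer cells in 1536-well plates were fixed and stained in a single step (final 0.05% Triton X-100, 1% formaldehyde, 1 ug/ml Hoechst) and their nuclei counted on 4× images. Treatment had been applied by pin tool the day after seeding as one drug alone or as a fixed anchor-drug dose with five library-drug doses (not always all listed) in √10 steps. Relative viability is the nuclei count of treated wells divided by that of vehicle wells, and values are medians of duplicate plates.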
# SK-MES-1 = test system: SK-MES-1
# Procedure, shortened: as §1
# NCI-H2087 = test system: NCI-H2087
# Procedure, shortened: as §1
# A-427 = test system: A-427
# Procedure, shortened: as §1
# NCI-H1915 = test system: NCI-H1915
# Procedure, shortened: as §1
# NCI-H596 = test system: NCI-H596
# Procedure, shortened: as §1
# NCI-H661 = test system: NCI-H661
# Procedure, shortened: as §1
# NCI-H1734 = test system: NCI-H1734
# Procedure, shortened: as §1
# HCC-78 = test system: HCC-78
# Procedure, shortened: as §1
# HCC-366 = test system: HCC-366
# Procedure, shortened: as §1
# NCI-H650 = test system: NCI-H650
# Procedure, shortened: as §1
# EPLC-272H = test system: EPLC-272H
# Procedure, shortened: as §1
# HOP-62 = test system: HOP-62
# Procedure, shortened: as §1
# HCC-44 = test system: HCC-44
# Procedure, shortened: as §1
# NCI-H358 = test system: NCI-H358
# Procedure, shortened: as §1
# NCI-H1395 = test system: NCI-H1395
# Procedure, shortened: as §1
# LOU-NH91 = test system: LOU-NH91
# Procedure, shortened: as §1
# NCI-H838 = test system: NCI-H838
# Procedure, shortened: as §1
# NCI-H3122 = test system: NCI-H3122
# Procedure, shortened: as §1
# NCI-H2023 = test system: NCI-H2023
# Procedure, shortened: as §1
# COR-L23 = test system: COR-L23
# Procedure, shortened: as §1
compound,measurement,setting,value
O=C(O)CCCCC(CCSCc1ccccc1)SCc1ccccc1 (centres undefined) [CPI-613] + Cc1nc(NC(=O)N2CCC[C@H]2C(N)=O)sc1-c1ccnc(C(C)(C)C(F)(F)F)c1 [Alpelisib] (partner 2 µM),relative viability,EKVX; first compound 5 µM,0.802
same,relative viability,EKVX; first compound 15.81 µM,0.814
same,relative viability,EKVX; first compound 50 µM,0.903
same,relative viability,EKVX; first compound 158.11 µM,0.857
same,relative viability,EKVX; first compound 500 µM,0.965
same,relative viability,SK-MES-1; first compound 5 µM,0.894
same,relative viability,SK-MES-1; first compound 15.81 µM,0.982
same,relative viability,SK-MES-1; first compound 50 µM,0.784
same,relative viability,SK-MES-1; first compound 158.11 µM,0.724
same,relative viability,SK-MES-1; first compound 500 µM,0.785
same,relative viability,NCI-H2087; first compound 5 µM,1.14
same,relative viability,NCI-H2087; first compound 15.81 µM,0.95
same,relative viability,NCI-H2087; first compound 50 µM,0.95
same,relative viability,NCI-H2087; first compound 158.11 µM,0.0725
same,relative viability,NCI-H2087; first compound 500 µM,0.0158
same,relative viability,A-427; first compound 5 µM,1.02
same,relative viability,A-427; first compound 15.81 µM,1.06
same,relative viability,A-427; first compound 50 µM,1.01
same,relative viability,A-427; first compound 158.11 µM,0.985
same,relative viability,A-427; first compound 500 µM,0.857
same,relative viability,NCI-H1915; first compound 5 µM,1.12
same,relative viability,NCI-H1915; first compound 15.81 µM,1.04
same,relative viability,NCI-H1915; first compound 50 µM,1.01
same,relative viability,NCI-H1915; first compound 158.11 µM,0.925
same,relative viability,NCI-H1915; first compound 500 µM,0.926
same,relative viability,NCI-H596; first compound 5 µM,0.539
same,relative viability,NCI-H596; first compound 15.81 µM,0.496
same,relative viability,NCI-H596; first compound 50 µM,0.539
same,relative viability,NCI-H596; first compound 158.11 µM,0.473
same,relative viability,NCI-H596; first compound 500 µM,0.0181
same,relative viability,NCI-H661; first compound 5 µM,0.68
same,relative viability,NCI-H661; first compound 15.81 µM,0.515
same,relative viability,NCI-H661; first compound 50 µM,0.939
same,relative viability,NCI-H661; first compound 158.11 µM,0.594
same,relative viability,NCI-H661; first compound 500 µM,0.608
same,relative viability,NCI-H1734; first compound 5 µM,0.629
same,relative viability,NCI-H1734; first compound 15.81 µM,0.694
same,relative viability,NCI-H1734; first compound 50 µM,0.625
same,relative viability,NCI-H1734; first compound 158.11 µM,0.493
same,relative viability,NCI-H1734; first compound 500 µM,0.098
same,relative viability,HCC-78; first compound 5 µM,0.26
same,relative viability,HCC-78; first compound 15.81 µM,0.309
same,relative viability,HCC-78; first compound 158.11 µM,0.338
same,relative viability,HCC-78; first compound 500 µM,0.358
same,relative viability,HCC-366; first compound 5 µM,0.322
same,relative viability,HCC-366; first compound 15.81 µM,0.373
same,relative viability,HCC-366; first compound 50 µM,0.441
same,relative viability,HCC-366; first compound 158.11 µM,0.355
same,relative viability,HCC-366; first compound 500 µM,0.0061
same,relative viability,NCI-H650; first compound 5 µM,1.18
same,relative viability,NCI-H650; first compound 15.81 µM,1.06
same,relative viability,NCI-H650; first compound 50 µM,1.06
same,relative viability,NCI-H650; first compound 158.11 µM,0.931
same,relative viability,NCI-H650; first compound 500 µM,0.892
same,relative viability,EPLC-272H; first compound 5 µM,0.95
same,relative viability,EPLC-272H; first compound 15.81 µM,0.813
same,relative viability,EPLC-272H; first compound 50 µM,0.94
same,relative viability,EPLC-272H; first compound 158.11 µM,0.923
same,relative viability,EPLC-272H; first compound 500 µM,1.04
same,relative viability,HOP-62; first compound 5 µM,1.07
same,relative viability,HOP-62; first compound 15.81 µM,0.833
same,relative viability,HOP-62; first compound 50 µM,0.916
same,relative viability,HOP-62; first compound 158.11 µM,0.189
same,relative viability,HOP-62; first compound 500 µM,0.246
same,relative viability,HCC-44; first compound 5 µM,0.841
same,relative viability,HCC-44; first compound 15.81 µM,0.758
same,relative viability,HCC-44; first compound 50 µM,0.92
same,relative viability,HCC-44; first compound 158.11 µM,0.374
same,relative viability,HCC-44; first compound 500 µM,0.041
same,relative viability,NCI-H358; first compound 5 µM,0.851
same,relative viability,NCI-H358; first compound 15.81 µM,0.742
same,relative viability,NCI-H358; first compound 50 µM,0.912
same,relative viability,NCI-H358; first compound 158.11 µM,0.261
same,relative viability,NCI-H358; first compound 500 µM,0.0364
same,relative viability,NCI-H1395; first compound 5 µM,0.988
same,relative viability,NCI-H1395; first compound 15.81 µM,1.08
same,relative viability,NCI-H1395; first compound 50 µM,1.27
same,relative viability,NCI-H1395; first compound 158.11 µM,0.99
same,relative viability,NCI-H1395; first compound 500 µM,0.75
same,relative viability,LOU-NH91; first compound 5 µM,0.73
same,relative viability,LOU-NH91; first compound 15.81 µM,0.679
same,relative viability,LOU-NH91; first compound 50 µM,0.743
same,relative viability,LOU-NH91; first compound 158.11 µM,0.728
same,relative viability,LOU-NH91; first compound 500 µM,0.718
same,relative viability,NCI-H838; first compound 5 µM,0.979
same,relative viability,NCI-H838; first compound 15.81 µM,0.922
same,relative viability,NCI-H838; first compound 50 µM,0.91
same,relative viability,NCI-H838; first compound 158.11 µM,0.589
same,relative viability,NCI-H838; first compound 500 µM,0.0842
same,relative viability,NCI-H3122; first compound 5 µM,0.638
same,relative viability,NCI-H3122; first compound 15.81 µM,0.751
same,relative viability,NCI-H3122; first compound 50 µM,0.715
same,relative viability,NCI-H3122; first compound 158.11 µM,0.528
same,relative viability,NCI-H3122; first compound 500 µM,0.0415
same,relative viability,NCI-H2023; first compound 5 µM,0.624
same,relative viability,NCI-H2023; first compound 15.81 µM,0.576
same,relative viability,NCI-H2023; first compound 50 µM,0.548
same,relative viability,NCI-H2023; first compound 158.11 µM,0.0809
same,relative viability,NCI-H2023; first compound 500 µM,0.0084
same,relative viability,COR-L23; first compound 5 µM,0.745
same,relative viability,COR-L23; first compound 15.81 µM,0.696
same,relative viability,COR-L23; first compound 50 µM,0.852
same,relative viability,COR-L23; first compound 158.11 µM,0.281
same,relative viability,COR-L23; first compound 500 µM,0.0191
